From publication PMC9586930, “Molecular insights into the distinct signaling duration for the peptide-induced PTH1R activation” (Nature Communications, 2022)
Where a chain is given by its changes, count along the chain named.

Experiments:
Type in all cases: cell-based
Conditions in all cases: for ΔpEC50±SEM: relative to WT, n = 3 in triplicate; for ΔpEC50±SEM / Span±SEM: mean ± SEM; for Span±SEM: window between maximal response (Emax) and vehicle, n = 3
PTH1R T430A mutant = biological target: T1, PTH1R T430A mutant (Homo sapiens, UniProt Q03431, T430A); assay: cAMP accumulation assay (GloSensor), PTH1R T430A
T1 construct: a flag-tag was fused to the N terminal of full-length PTH1R (WT or mutant); expressed in transfected cells; host or cells: HEK293T
T1 sequence (Q03431 27-593 T430A): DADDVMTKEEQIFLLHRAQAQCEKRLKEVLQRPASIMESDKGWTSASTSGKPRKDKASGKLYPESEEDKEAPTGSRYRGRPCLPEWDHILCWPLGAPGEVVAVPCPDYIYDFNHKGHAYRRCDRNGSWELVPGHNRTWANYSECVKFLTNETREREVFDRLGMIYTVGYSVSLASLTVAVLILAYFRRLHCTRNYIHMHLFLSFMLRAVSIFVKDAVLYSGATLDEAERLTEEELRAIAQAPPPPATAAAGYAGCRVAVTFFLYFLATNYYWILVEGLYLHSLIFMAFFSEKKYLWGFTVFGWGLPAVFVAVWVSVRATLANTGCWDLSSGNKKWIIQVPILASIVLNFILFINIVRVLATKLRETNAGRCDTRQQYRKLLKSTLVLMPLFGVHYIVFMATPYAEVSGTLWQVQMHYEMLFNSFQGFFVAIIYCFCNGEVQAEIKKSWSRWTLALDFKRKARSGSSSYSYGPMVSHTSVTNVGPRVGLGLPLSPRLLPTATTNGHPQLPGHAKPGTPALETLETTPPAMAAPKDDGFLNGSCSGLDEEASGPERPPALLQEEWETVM
Protocol: (§1) Human embryonic kidney 293 T (HEK293T, ATCC: CRL-1573) cells were transfected with a plasmid mixture consisting of pcDNA3.1-flag-PTH1R (WT or mutants) and the cAMP biosensor GloSensor-22F (Promega) at a ratio of 2:1 (see Supplementary Table 7 for a list of primers used in this study). After 24 h, transfected cells were plated onto a 384-well plate, which was treated with cell adherent reagent (Applygen) in advance. After another 12 h, cells were treated with Hank’s balanced salt solution for starvation and then incubated in CO2-independent media containing 4% GloSensor cAMP Reagent (Promega) at a volume of 5 μl per well and incubated for 20 min at RT before measurements for baseline luminescence (Spark Multimode microplate reader, TECAN). Next, test ligands were added at different concentrations from 10^−6 to 10^−13 M before second measurement. Finally, data were normalized to 100% of the maximal PTH (1-34) response for WT PTH1R using a sigmoidal dose-response in GraphPad Prism.
(§2) Statistical analyses were performed on at least three individual datasets and analysed using GraphPad Prism software. Bars represent differences in the calculated agonist potency (pEC50) and maximum agonist response (Emax) for each mutant relative to the WT receptor. Data are mean± s.e.m. from at least three independent experiments, performed in triplicates. ns, not significant, ^nsP > 0.01; ^*P < 0.01; ^**P < 0.001; ^***P < 0.0001 (one-way analysis of variance (ANOVA) followed by Dunnett’s test, compared with the response of the WT). For dose-response experiments, data were normalized and analyzed using nonlinear curve fitting for the log (agonist) versus response (three parameters) curves.

PTH1R K360A mutant = biological target: T2, PTH1R K360A mutant (Homo sapiens, UniProt Q03431, K360A); assay: cAMP accumulation assay (GloSensor), PTH1R K360A
T2 construct: a flag-tag was fused to the N terminal of full-length PTH1R (WT or mutant); expressed in transfected cells; host or cells: HEK293T
T2 sequence (Q03431 27-593 K360A): T1 sequence (Q03431 27-593 T430A) with K334A, A404T
Protocol: as §1, §2

WT PTH1R = biological target: T3, WT PTH1R (Homo sapiens, UniProt Q03431); assay: cAMP accumulation assay (GloSensor), wild-type PTH1R
T3 construct: a flag-tag was fused to the N terminal of full-length PTH1R (WT or mutant); expressed in transfected cells; host or cells: HEK293T
T3 sequence (Q03431 27-593): T1 sequence (Q03431 27-593 T430A) with A404T
Protocol: as §1, §2

span (from the WT) (PTH1R T430A mutant; PTH1R T430ECL3A, replicate 1) | ΔpEC50 (from the WT) (PTH1R T430A mutant; PTH1R T430ECL3A, replicate 1) | span (from the WT) (PTH1R T430A mutant; PTH1R T430ECL3A, replicate 2) | ΔpEC50 (from the WT) (PTH1R T430A mutant; PTH1R T430ECL3A, replicate 2) | span (from the WT) (PTH1R T430A mutant; PTH1R T430ECL3A, replicate 3) | ΔpEC50 (from the WT) (PTH1R T430A mutant; PTH1R T430ECL3A, replicate 3) | ΔpEC50±SEM (PTH1R T430A mutant) | ΔpEC50 (from the WT) (PTH1R T430A mutant; replicate 1) | ΔpEC50 (from the WT) (PTH1R T430A mutant; replicate 2) | ΔpEC50 (from the WT) (PTH1R T430A mutant; replicate 3) | Span±SEM (PTH1R T430A mutant) | span (from the WT) (PTH1R K360A mutant; PTH1R K3605.36A, replicate 1) | ΔpEC50 (from the WT) (PTH1R K360A mutant; PTH1R K3605.36A, replicate 1) | span (from the WT) (PTH1R K360A mutant; PTH1R K3605.36A, replicate 2) | ΔpEC50 (from the WT) (PTH1R K360A mutant; PTH1R K3605.36A, replicate 2) | span (from the WT) (PTH1R K360A mutant; PTH1R K3605.36A, replicate 3) | ΔpEC50 (from the WT) (PTH1R K360A mutant; PTH1R K3605.36A, replicate 3) | ΔpEC50±SEM (PTH1R K360A mutant) | ΔpEC50 (from the WT) (PTH1R K360A mutant; replicate 1) | ΔpEC50 (from the WT) (PTH1R K360A mutant; replicate 2) | Substance | further results
172.2 | -1.056 | 195.6 | -1.067 | 155.2 | -1.166 | -1.10±0.03 | -1.056 | -1.067 | -1.166 | 174.33±11.17 | 126.5 | 0.012 | 121.9 | 0.001 | 153.1 | -0.25 | -0.08±0.09 | 0.012 | 0.001 | H-AVAEIQLMHQRAKWIQDARRRAFLHKLIAEIHTAEI-OH [LA-PTH, long-acting PTH analog, modified PTH/PTHrP hybrid] | ΔpEC50 (from the WT) (PTH1R K360A mutant; replicate 3): -0.25; Span±SEM (PTH1R K360A mutant): 133.83±9.72; span (from the WT) (WT PTH1R; PTH1R WT, replicate 1): 106.8; ΔpEC50 (from the WT) (WT PTH1R; PTH1R WT, replicate 1): 0; span (from the WT) (WT PTH1R; PTH1R WT, replicate 2): 118.8; ΔpEC50 (from the WT) (WT PTH1R; PTH1R WT, replicate 2): 0; span (from the WT) (WT PTH1R; PTH1R WT, replicate 3): 116.4; ΔpEC50 (from the WT) (WT PTH1R; PTH1R WT, replicate 3): 0; ΔpEC50±SEM (WT PTH1R): 0; ΔpEC50 (from the WT) (WT PTH1R; replicate 1): 0; ΔpEC50 (from the WT) (WT PTH1R; replicate 2): 0; ΔpEC50 (from the WT) (WT PTH1R; replicate 3): 0; Span±SEM (WT PTH1R): 114.00±3.67
194 | 0.303 | 170.6 | 0.384 | 159.7 | 0.286 | -0.32±0.03 | 0.303 | 0.384 | 0.286 | 174.77±10.12 | 136.9 | 0.02 | 137.1 | -0.139 | 183.3 | -0.31 | -0.14±0.10 | 0.02 | -0.139 | H-SVSEIQLMHNLGKHLNSMERVEWLRKKLQDVHNF-OH [PTH, Teriparatide, human PTH 1-34, long-acting peptide agonist of PTH1R] | ΔpEC50 (from the WT) (PTH1R K360A mutant; replicate 3): -0.31; Span±SEM (PTH1R K360A mutant): 135.06±20.89; Emax (WT PTH1R; HEK293T cells, from curve fitting dose-response data): 103.1 luminescence counts per 500ms; span (from the WT) (WT PTH1R; PTH1R WT, replicate 1): 125.1; ΔpEC50 (from the WT) (WT PTH1R; PTH1R WT, replicate 1): 0; span (from the WT) (WT PTH1R; PTH1R WT, replicate 2): 136.6; ΔpEC50 (from the WT) (WT PTH1R; PTH1R WT, replicate 2): 0; span (from the WT) (WT PTH1R; PTH1R WT, replicate 3): 114.9; ΔpEC50 (from the WT) (WT PTH1R; PTH1R WT, replicate 3): 0; ΔpEC50±SEM (WT PTH1R): 0; ΔpEC50 (from the WT) (WT PTH1R; replicate 1): 0; ΔpEC50 (from the WT) (WT PTH1R; replicate 2): 0; ΔpEC50 (from the WT) (WT PTH1R; replicate 3): 0; Span±SEM (WT PTH1R): 125.53±6.27

Substance | span (from the WT) (PTH1R T430A mutant; PTH1R T430ECL3A, replicate 1) | ΔpEC50 (from the WT) (PTH1R T430A mutant; PTH1R T430ECL3A, replicate 1) | span (from the WT) (PTH1R T430A mutant; PTH1R T430ECL3A, replicate 2) | ΔpEC50 (from the WT) (PTH1R T430A mutant; PTH1R T430ECL3A, replicate 2) | span (from the WT) (PTH1R T430A mutant; PTH1R T430ECL3A, replicate 3) | ΔpEC50 (from the WT) (PTH1R T430A mutant; PTH1R T430ECL3A, replicate 3) | ΔpEC50±SEM (PTH1R T430A mutant) | ΔpEC50 (from the WT) (PTH1R T430A mutant; replicate 1) | ΔpEC50 (from the WT) (PTH1R T430A mutant; replicate 2) | ΔpEC50 (from the WT) (PTH1R T430A mutant; replicate 3) | Span±SEM (PTH1R T430A mutant) | span (from the WT) (PTH1R K360A mutant; PTH1R K3605.36A, replicate 1) | ΔpEC50 (from the WT) (PTH1R K360A mutant; PTH1R K3605.36A, replicate 1) | span (from the WT) (PTH1R K360A mutant; PTH1R K3605.36A, replicate 2) | ΔpEC50 (from the WT) (PTH1R K360A mutant; PTH1R K3605.36A, replicate 2) | span (from the WT) (PTH1R K360A mutant; PTH1R K3605.36A, replicate 3) | ΔpEC50 (from the WT) (PTH1R K360A mutant; PTH1R K3605.36A, replicate 3) | ΔpEC50±SEM (PTH1R K360A mutant) | ΔpEC50 (from the WT) (PTH1R K360A mutant; replicate 1) | ΔpEC50 (from the WT) (PTH1R K360A mutant; replicate 2) | further results
H-AVSEHQLLHDKGKSIQDLRRRELLEKLL-{Aib}-KLHTA-NH2 [ABL, Abaloparatide, an analog of PTHrP, short-acting PTH1R agonist] | 230.5 | -0.76 | 190.2 | -0.775 | 191.7 | -0.865 | -0.8±0.03 | -0.76 | -0.775 | -0.865 | 204.13±13.19 | 125.1 | -1.039 | 150.8 | -1.216 | 115 | -1.137 | -1.13±0.05 | -1.039 | -1.216 | ΔpEC50 (from the WT) (PTH1R K360A mutant; replicate 3): -1.137; Span±SEM (PTH1R K360A mutant): 130.30±10.66; span (from the WT) (WT PTH1R; PTH1R WT, replicate 1): 115.9; ΔpEC50 (from the WT) (WT PTH1R; PTH1R WT, replicate 1): 0; span (from the WT) (WT PTH1R; PTH1R WT, replicate 2): 122.2; ΔpEC50 (from the WT) (WT PTH1R; PTH1R WT, replicate 2): 0; span (from the WT) (WT PTH1R; PTH1R WT, replicate 3): 127.3; ΔpEC50 (from the WT) (WT PTH1R; PTH1R WT, replicate 3): 0; ΔpEC50±SEM (WT PTH1R): 0; ΔpEC50 (from the WT) (WT PTH1R; replicate 1): 0; ΔpEC50 (from the WT) (WT PTH1R; replicate 2): 0; ΔpEC50 (from the WT) (WT PTH1R; replicate 3): 0; Span±SEM (WT PTH1R): 121.80±3.30
